One block for each compound: values may come before it.
Key:
RBM39 = target: T1, RBM39 (Homo sapiens, UniProt Q14498); test: Western blot of RBM39 protein level in OPM2; type: cell-based; settings: indisulam 1 μM + rapamycin 20 nM, 24 hours
T1 construct: endogenous in cells; host or cells: OPM2 myeloma cell line
T1 sequence (Q14498 1-530): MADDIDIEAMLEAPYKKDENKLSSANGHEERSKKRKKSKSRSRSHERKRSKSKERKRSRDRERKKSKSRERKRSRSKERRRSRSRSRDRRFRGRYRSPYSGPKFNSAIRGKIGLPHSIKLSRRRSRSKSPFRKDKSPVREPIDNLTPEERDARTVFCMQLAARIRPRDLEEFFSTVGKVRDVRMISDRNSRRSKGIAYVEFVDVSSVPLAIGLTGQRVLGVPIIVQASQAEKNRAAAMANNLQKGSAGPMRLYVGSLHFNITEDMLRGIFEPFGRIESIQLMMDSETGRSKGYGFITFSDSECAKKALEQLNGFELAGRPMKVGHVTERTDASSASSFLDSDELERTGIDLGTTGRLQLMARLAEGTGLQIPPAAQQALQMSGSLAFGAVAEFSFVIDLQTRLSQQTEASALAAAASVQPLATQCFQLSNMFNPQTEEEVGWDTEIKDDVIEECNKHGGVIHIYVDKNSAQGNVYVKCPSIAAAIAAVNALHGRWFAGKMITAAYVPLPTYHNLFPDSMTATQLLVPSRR
Method: (§1) The protein levels were analyzed using Western blot.
Different concentrations of indisulam (0, 0.1, 1 μm) and a fixed concentration of rapamycin (20 nM) were added to the myeloma cell line OPM2. After 24 hours, protein levels were analyzed using the same method as in Embodiment 3.

BRD4 = target: T2, BRD4 (Homo sapiens, UniProt O60885); test: Western blot of BRD4 protein level in OPM2; type: cell-based; settings: ARV-771 0.5 nM or 1 nM + rapamycin 20 nM, 24 hours
T2 construct: endogenous in cells; host or cells: OPM2 myeloma cell line
Method: as §1
Different concentrations of ARV-771 (0, 0.5, 1 nM) and a fixed concentration of rapamycin (20 nM) were added to the myeloma cell line OPM2.

[1] = tested on: DEPDC5 knockout OPM2 cells; test: Cell viability (CellTiter-Lumi) of DEPDC5 knockout OPM2 under immunomodulatory drugs; type: cell-based, human; settings: DEPDC5-KO OPM2; drug gradients starting from 1 μM; 5 days
Method: (§2) • (1) OPM2 cells in the logarithmic growth phase were seeded in a 96-well plate at 3000 cells/well. The volume of the cell suspension is 90 μl/well. • (2) Each well was added with 10 μl lenalidomide (Len), pomalidomide (Pom), CC-122, or CC-220 down the concentration gradients starting from 1 μM. Control groups with no drug treatment were set. Each drug had 7 gradients with 3 replicates. • (3) The plate was placed in a humidity-controlled environment (37° C., 5% CO2) for 5 days. • (4) Subsequently, 50 μl of CTL solution was added to each well under dark conditions. Then, the plate was placed on a shaker and shaken for 10 minutes, followed by reading on a microplate reader. • (5) The average absorbance values of the 3 replicates were used to plot the cell viability curves of OPM2 under drug treatment.
(§3) Cell viability was measured using the CellTiter-Lumi luminescent cell viability assay kit (Beyotime), with luminescence intensity reflecting cell viability, through an ATP-catalyzed luciferase reaction in the cell culture medium.

OPM2-P5000 = test: Cell viability of pomalidomide-resistant OPM2-P5000 cells; type: cell-based, human; settings: CC-92480 3 μM + rapamycin 20 nM, viability at 0, 96, 120 h
Method: as §2, §3
Meanwhile, this embodiment provides the following groups for cell viability test in the pomalidomide-resistant myeloma cell line OPM2-P5000: rapamycin alone (20 nM), pomalidomide alone (3 μM), CC-92480 alone (3 μM), combination treatment, and control. Cell viability was assessed on Oh, 96 h and 120 h post drug treatment using the same method as in Embodiment 1.

IKZF3 [2] = target: T3, IKZF3 (Homo sapiens, UniProt Q96SW2+Q9UKT9); test: Western blot of IKZF3 in pomalidomide-resistant OPM2-P5000 and OPM2 cells; type: cell-based; settings: pomalidomide-resistant myeloma cell line (OPM2-P5000; FIG. 7b OPM2); rapamycin 20 nM
T3 construct: Cell pellets were collected after 24 h and were lysed using RIPA; The protein levels were analyzed using Western blot; endogenous in cells; host or cells: OPM2, RPMI-8226, U266 myeloma cell lines
Method: as §1
In this embodiment, the myeloma cell line OPM2, which is sensitive to pomalidomide was subjected to long-term high-dose pomalidomide treatment to obtain the pomalidomide-resistant cell line OPM2-P5000. Pomalidomide and CC-92480 (0.5 nM, 25 nM) were administered to OPM2 cells, and pomalidomide and CC-92480 (0.5 nM, 3 μM) were administered to OPM2-P5000 cells. These treatments were combined with a fixed concentration of rapamycin (20 nM).

GSPT1 [3] = target: T4, GSPT1 (Homo sapiens, UniProt P15170+Q96SW2); test: Western blot of GSPT1 protein level in leukemia cell lines HL60 and MOLT-4; type: cell-based; settings: degrader (10 nM CC90009) co-administered with varying concentrations of rapamycin; HL60, MOLT-4; 12 h
Method: as §1
The samples were collected after 12 h, and the protein levels were examined by the same method as in Embodiment 3.

GSPT1 [4] = target: T4, GSPT1; test: Western blot of GSPT1 protein level in pancreatic cancer cell line KP4; type: cell-based; design: endogenous in cells; host or cells: KP4 pancreatic cancer cell line; settings: 24 hours
U266 = test: Cell viability, pomalidomide combined with rapamycin, U266; type: cell-based, human; settings: U266 (pomalidomide-resistant); viability at 0, 48, 96, 120 h; P<0.001
Method: as §2, with “Each drug had 7 gradients with 3 replicates. • (3) The plate was placed in a humidity-controlled environment (37° C., 5% CO2) for 5 days. • (4) Subsequently, 50 μl of CTL solution was added to each well under dark conditions.” left out
as §3
(§4) In this embodiment, the pomalidomide-sensitive myeloma cell lines (MM1S, H929 and OPM2) and the pomalidomide-resistant myeloma cell lines (U266 and RPMI-8226) were treated with mTOR signaling pathway inhibitor rapamycin alone, pomalidomide alone, a combination of rapamycin and pomalidomide, and control, respectively. Cell viability was assessed on Oh, 48 h, 96 h and 120 h post drug treatment. The detection used on each day is the same and has been described in Embodiment 1.

IKZF3 [5] = target: T3, IKZF3; test: Western blot of IKZF3 protein level in myeloma cell lines; type: cell-based
OPM2 = test: Cell viability, pomalidomide combined with rapamycin, OPM2; type: cell-based, human; settings: OPM2 (pomalidomide-sensitive); viability at 0, 48, 96, 120 h; P<0.001
Method: as §2, with “Each drug had 7 gradients with 3 replicates. • (3) The plate was placed in a humidity-controlled environment (37° C., 5% CO2) for 5 days. • (4) Subsequently, 50 μl of CTL solution was added to each well under dark conditions.” left out
as §3, §4

MM1S = test: Cell viability, pomalidomide combined with rapamycin, MM1S; type: cell-based, human; settings: MM1S (pomalidomide-sensitive); viability at 0, 48, 96, 120 h; P<0.001
Method: as §2, with “Each drug had 7 gradients with 3 replicates. • (3) The plate was placed in a humidity-controlled environment (37° C., 5% CO2) for 5 days. • (4) Subsequently, 50 μl of CTL solution was added to each well under dark conditions.” left out
as §3, §4

IKZF1 = IKZF1 (Homo sapiens, UniProt Q13422+Q96SW2)
Method: 25 nM of pomalidomide and varying concentrations of rapamycin were added to myeloma cell lines OPM2, RPMI-8226, and U266, respectively. Cell pellets were collected after 24 h and were lysed using RIPA. The protein levels were analyzed using Western blot.
Different concentrations of ZNL-02-096 (0, 1, 10, 10^2, 10^3 nM) and a fixed concentration of pomalidomide (25 nM) were added to the myeloma cell line OPM2. After 24 hours, protein levels were detected using the same method as in Embodiment 3.

RPMI-8226 = test: Cell viability, pomalidomide combined with rapamycin, RPMI-8226; type: cell-based, human; settings: RPMI-8226 (pomalidomide-resistant); viability at 0, 48, 96, 120 h; P<0.001
Method: as §2, with “Each drug had 7 gradients with 3 replicates. • (3) The plate was placed in a humidity-controlled environment (37° C., 5% CO2) for 5 days. • (4) Subsequently, 50 μl of CTL solution was added to each well under dark conditions.” left out
as §3, §4

H929 = test: Cell viability, pomalidomide combined with rapamycin, H929; type: cell-based, human; settings: H929 (pomalidomide-sensitive); viability at 0, 48, 96, 120 h; P<0.001
Method: as §2, with “Each drug had 7 gradients with 3 replicates. • (3) The plate was placed in a humidity-controlled environment (37° C., 5% CO2) for 5 days. • (4) Subsequently, 50 μl of CTL solution was added to each well under dark conditions.” left out
as §3, §4

Wee1 = target: T5, Wee1 (Homo sapiens, UniProt P30291); test: Western blot of Wee1 protein level in OPM2; type: cell-based; settings: ZNL-02-096 10 nM + rapamycin 20 nM, 24 hours
T5 construct: endogenous in cells; host or cells: OPM2 myeloma cell line
Method: as §1
Different concentrations of ZNL-02-096 (0, 1, 10 nM) and a fixed concentration of rapamycin (20 nM) were added to the myeloma cell line OPM2.

[6] = pomalidomide 25 nM + varying concentrations of everolimus, OPM2, 24 hours

T3 sequence (Q9UKT9 whole entry): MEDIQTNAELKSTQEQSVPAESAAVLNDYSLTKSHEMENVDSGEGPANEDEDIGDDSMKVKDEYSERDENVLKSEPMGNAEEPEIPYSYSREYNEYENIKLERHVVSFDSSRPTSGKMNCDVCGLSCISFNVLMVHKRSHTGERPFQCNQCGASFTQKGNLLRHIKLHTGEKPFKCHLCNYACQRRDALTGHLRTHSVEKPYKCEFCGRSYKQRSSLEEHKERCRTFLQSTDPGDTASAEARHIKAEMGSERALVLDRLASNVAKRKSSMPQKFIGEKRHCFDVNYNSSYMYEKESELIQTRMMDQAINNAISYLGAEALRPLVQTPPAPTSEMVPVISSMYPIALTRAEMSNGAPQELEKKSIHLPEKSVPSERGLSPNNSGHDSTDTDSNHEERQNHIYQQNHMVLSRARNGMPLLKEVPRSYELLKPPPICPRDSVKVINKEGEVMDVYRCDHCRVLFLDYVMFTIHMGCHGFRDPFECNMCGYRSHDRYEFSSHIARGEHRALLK
T3 sequence (Q96SW2 whole entry): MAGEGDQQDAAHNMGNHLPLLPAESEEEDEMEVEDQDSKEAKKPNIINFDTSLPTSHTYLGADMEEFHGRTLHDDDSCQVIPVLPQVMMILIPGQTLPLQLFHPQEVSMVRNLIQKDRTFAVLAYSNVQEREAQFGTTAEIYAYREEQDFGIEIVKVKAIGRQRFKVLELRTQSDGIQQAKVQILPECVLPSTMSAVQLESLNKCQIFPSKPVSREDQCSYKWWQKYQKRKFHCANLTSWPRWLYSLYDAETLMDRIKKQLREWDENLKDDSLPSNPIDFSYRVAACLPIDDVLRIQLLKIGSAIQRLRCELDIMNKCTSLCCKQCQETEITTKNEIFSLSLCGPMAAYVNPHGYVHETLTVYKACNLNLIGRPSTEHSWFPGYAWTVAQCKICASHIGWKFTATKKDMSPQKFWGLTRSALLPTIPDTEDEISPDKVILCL
T3 sequence (Q16531 whole entry partner): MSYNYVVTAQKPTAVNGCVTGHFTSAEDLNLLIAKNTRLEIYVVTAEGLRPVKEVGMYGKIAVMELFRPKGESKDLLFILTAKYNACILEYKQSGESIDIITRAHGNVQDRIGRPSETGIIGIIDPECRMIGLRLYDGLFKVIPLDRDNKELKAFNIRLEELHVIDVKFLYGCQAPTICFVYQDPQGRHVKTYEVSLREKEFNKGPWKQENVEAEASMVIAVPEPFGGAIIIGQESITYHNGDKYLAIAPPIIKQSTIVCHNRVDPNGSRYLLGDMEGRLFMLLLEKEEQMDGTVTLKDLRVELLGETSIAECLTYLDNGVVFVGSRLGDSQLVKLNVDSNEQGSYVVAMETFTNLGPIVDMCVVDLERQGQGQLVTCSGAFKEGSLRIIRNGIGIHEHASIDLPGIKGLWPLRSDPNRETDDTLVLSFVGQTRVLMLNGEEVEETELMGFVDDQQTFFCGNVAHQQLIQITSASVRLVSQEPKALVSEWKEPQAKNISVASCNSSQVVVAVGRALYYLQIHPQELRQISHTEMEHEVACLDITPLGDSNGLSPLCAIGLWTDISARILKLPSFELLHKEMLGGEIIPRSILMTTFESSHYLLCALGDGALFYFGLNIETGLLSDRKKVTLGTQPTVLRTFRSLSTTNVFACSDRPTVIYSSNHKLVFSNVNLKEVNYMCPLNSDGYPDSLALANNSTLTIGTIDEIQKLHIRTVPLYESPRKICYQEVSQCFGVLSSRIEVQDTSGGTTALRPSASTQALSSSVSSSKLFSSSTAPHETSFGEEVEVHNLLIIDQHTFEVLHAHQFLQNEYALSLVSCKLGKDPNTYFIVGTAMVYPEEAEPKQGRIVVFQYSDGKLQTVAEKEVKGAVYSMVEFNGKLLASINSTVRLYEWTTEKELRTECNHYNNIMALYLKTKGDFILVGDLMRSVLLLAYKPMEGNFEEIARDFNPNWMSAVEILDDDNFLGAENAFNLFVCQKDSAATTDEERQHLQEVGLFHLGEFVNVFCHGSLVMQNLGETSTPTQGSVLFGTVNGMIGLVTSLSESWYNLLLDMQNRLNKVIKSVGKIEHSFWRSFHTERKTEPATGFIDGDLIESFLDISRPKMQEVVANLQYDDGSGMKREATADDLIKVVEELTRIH
T4 sequence (P15170 whole entry): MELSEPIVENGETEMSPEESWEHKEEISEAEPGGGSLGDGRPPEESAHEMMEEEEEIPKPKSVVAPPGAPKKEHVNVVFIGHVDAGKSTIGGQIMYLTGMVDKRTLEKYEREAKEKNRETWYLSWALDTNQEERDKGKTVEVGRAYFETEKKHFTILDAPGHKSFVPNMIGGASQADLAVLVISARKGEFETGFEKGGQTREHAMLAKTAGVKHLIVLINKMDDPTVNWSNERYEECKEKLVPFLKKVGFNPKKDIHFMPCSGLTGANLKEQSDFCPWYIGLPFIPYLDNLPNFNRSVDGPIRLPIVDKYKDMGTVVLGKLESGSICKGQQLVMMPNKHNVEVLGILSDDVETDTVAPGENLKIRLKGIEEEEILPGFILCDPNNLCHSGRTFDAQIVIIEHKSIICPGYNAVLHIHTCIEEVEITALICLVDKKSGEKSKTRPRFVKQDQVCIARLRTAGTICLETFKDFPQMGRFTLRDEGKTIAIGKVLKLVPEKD
T4 sequence (Q96SW2 whole entry): as the sequence (Q96SW2 whole entry) above
T4 sequence (Q16531 whole entry partner): as the sequence (Q16531 whole entry partner) above
Sequence of IKZF1 (Q16531 whole entry): as the sequence (Q16531 whole entry partner) above
Sequence of IKZF1 (Q96SW2 whole entry): as the sequence (Q96SW2 whole entry) above
Sequence of IKZF1 (Q13422 whole entry): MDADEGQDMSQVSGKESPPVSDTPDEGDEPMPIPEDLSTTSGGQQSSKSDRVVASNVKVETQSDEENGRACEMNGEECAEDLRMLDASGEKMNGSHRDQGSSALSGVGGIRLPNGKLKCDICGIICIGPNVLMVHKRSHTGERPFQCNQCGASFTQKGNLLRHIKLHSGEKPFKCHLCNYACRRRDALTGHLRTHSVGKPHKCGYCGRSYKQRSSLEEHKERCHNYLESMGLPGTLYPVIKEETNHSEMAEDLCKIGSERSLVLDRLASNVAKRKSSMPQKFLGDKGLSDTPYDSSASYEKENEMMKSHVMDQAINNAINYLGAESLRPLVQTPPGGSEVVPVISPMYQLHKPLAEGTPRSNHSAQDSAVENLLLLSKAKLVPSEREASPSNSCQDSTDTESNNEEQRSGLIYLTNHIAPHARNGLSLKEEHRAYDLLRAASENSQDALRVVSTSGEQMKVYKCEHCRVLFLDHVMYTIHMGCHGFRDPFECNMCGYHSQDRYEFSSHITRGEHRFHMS
T5 sequence (P30291 whole entry): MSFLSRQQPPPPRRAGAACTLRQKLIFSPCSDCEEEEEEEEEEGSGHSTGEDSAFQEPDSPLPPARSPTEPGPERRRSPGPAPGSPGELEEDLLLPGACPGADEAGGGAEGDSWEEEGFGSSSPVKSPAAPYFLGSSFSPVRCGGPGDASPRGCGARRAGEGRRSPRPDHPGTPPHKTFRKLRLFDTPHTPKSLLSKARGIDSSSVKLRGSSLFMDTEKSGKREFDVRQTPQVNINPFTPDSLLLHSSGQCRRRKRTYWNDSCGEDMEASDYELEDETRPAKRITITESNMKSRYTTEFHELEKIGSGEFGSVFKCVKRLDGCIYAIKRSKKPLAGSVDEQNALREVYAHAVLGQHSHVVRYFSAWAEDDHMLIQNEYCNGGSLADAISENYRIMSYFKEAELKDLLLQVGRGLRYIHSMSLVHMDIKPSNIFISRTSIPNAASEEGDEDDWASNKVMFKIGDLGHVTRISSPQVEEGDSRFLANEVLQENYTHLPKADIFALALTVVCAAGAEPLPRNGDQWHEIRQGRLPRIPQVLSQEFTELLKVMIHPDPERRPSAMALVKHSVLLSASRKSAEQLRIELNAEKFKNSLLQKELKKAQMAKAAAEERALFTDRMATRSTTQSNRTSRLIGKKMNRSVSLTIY

degradation of the substrate RBM39, combination with rapamycin vs alone (RBM39): stronger degradation effect
Compound: NS(=O)(=O)c1ccc(S(=O)(=O)Nc2cccc3c(Cl)c[nH]c23)cc1 [indisulam]

degradation of the substrate BRD4, combination with rapamycin vs alone (BRD4): stronger degradation effect
Compound: Cc1ncsc1-c1ccc([C@H](C)NC(=O)[C@@H]2C[C@@H](O)CN2C(=O)[C@@H](NC(=O)COCCCOCCNC(=O)C[C@@H]2N=C(c3ccc(Cl)cc3)c3c(sc(C)c3C)-n3c(C)nnc32)C(C)(C)C)cc1 [ARV-771]

Compound: Cc1nc2cccc(N)c2c(=O)n1C1CCC(=O)NC1=O (stereo not shown) [CC-122]
cell viability (killing curve) of DEPDC5 knockout cells compared to the control group [1]: exhibit resistance

Compound: N#Cc1ccc(N2CCN(Cc3ccc(COc4cccc5c4CN([C@H]4CCC(=O)NC4=O)C5=O)cc3)CC2)c(F)c1 [CC-92480]
killing effect on myeloma cells, co-administered with rapamycin (OPM2-P5000): stronger killing effect | degradation of the substrate IKZF3, co-administration with rapamycin (IKZF3 [2]): enhance the degradation

Compound: Nc1cccc2c1CN(C1CCC(=O)NC1=O)C2=O (stereo not shown) [lenalidomide]
cell viability (killing curve) of DEPDC5 knockout cells compared to the control group [1]: exhibit resistance

level of substrate protein GSPT1 (GSPT1 [3]): significantly reduced | degradation of the substrate GSPT1, combination with everolimus (GSPT1 [4]; CC-90009 1 μM or CC-885 0.1 μM + everolimus 0.01, 0.1 μM): stronger degradation effect | degradation of the substrate GSPT1, combination with rapamycin (GSPT1 [4]; CC-90009 1 μM or CC-885 0.1 μM + rapamycin 0.01, 0.1 μM): stronger degradation effect
Compound: Cc1ccc(NC(=O)NCc2ccc3c(c2)CN(C2CCC(=O)NC2=O)C3=O)cc1Cl (stereo not shown) [CC-885]

Compound: Nc1cccc2c1C(=O)N(C1CCC(=O)NC1=O)C2=O (stereo not shown) [pomalidomide]
cell viability (killing curve) of DEPDC5 knockout cells compared to the control group [1]: exhibit resistance | killing of myeloma cells, combination with rapamycin vs pomalidomide alone (U266): stronger effect in killing myeloma cells | level of the substrate IKZF3 (IKZF3 [5]; 25 nM pomalidomide co-administered with varying concentrations of rapamycin, OPM2, RPMI-8226, U266, 24 h): significantly reduced | degradation of the substrate IKZF3, combination with everolimus (IKZF3 [5]; [6]): stronger degradation effect | killing of myeloma cells, combination with rapamycin vs pomalidomide alone (OPM2): stronger effect in killing myeloma cells | killing of myeloma cells, combination with rapamycin vs pomalidomide alone (MM1S): stronger effect in killing myeloma cells | degradation of IKZF1 (IKZF1; 25 nM pomalidomide co-administered with rapamycin, OPM2, RPMI-8226, U266, 24 h): enhances the degradation | degradation of the substrate IKZF1, combination with everolimus (IKZF1; [6]): stronger degradation effect | killing of myeloma cells, combination with rapamycin vs pomalidomide alone (RPMI-8226): stronger effect in killing myeloma cells | killing of myeloma cells, combination with rapamycin vs pomalidomide alone (H929): stronger effect in killing myeloma cells | degradation of the substrate IKZF3, co-administration with rapamycin (IKZF3 [2]): enhance the degradation

Compound: O=C1CC[C@H](N2Cc3c(OCc4ccc(CN5CCOCC5)cc4)cccc3C2=O)C(=O)N1 [CC-220]
cell viability (killing curve) of DEPDC5 knockout cells compared to the control group [1]: exhibit resistance

degradation of the substrate Wee1, combination with rapamycin vs alone (Wee1): stronger degradation effect
Compound: C=CCn1c(=O)c2cnc(Nc3ccc(N4CCN(CCCNc5cccc6c5C(=O)N(C5CCC(=O)NC5=O)C6=O)CC4)cc3)nc2n1-c1cccc(C(C)(C)O)n1 (stereo not shown) [ZNL-02-096]
